# PubChem BioAssay (NCI)
#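 Assay format: 96-well plates, 48-hour exposure. TGI denotes the concentration required for complete inhibition of growth.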
# Legend:
# Experiment in all cases: growth of human tumour cells (NCI), 48 h
# NCI-H460 lung = system: NCI-H460 lung
# EKVX NSCLC = system: EKVX NSCLC
# UACC-257 melanoma = system: UACC-257 melanoma
# HCC-2998 colon = system: HCC-2998 colon
# SNB-75 CNS = system: SNB-75 CNS
# CCRF-CEM leukemia = system: CCRF-CEM leukemia
# OVCAR-4 ovarian = system: OVCAR-4 ovarian
# SNB-19 CNS = system: SNB-19 CNS
# HOP-62 NSCLC = system: HOP-62 NSCLC
# HCT-116 colon = system: HCT-116 colon
# UO-31 renal = system: UO-31 renal
# SK-MEL-5 melanoma = system: SK-MEL-5 melanoma
# SR leukemia = system: SR leukemia
# SK-OV-3 ovarian = system: SK-OV-3 ovarian
# COLO 205 colon = system: COLO 205 colon
# NCI-H522 lung = system: NCI-H522 lung
# SF-295 CNS = system: SF-295 CNS
# DU-145 prostate = system: DU-145 prostate
# SK-MEL-28 melanoma = system: SK-MEL-28 melanoma
# NCI/ADR-RES ovarian = system: NCI/ADR-RES ovarian
# A498 renal = system: A498 renal
# MDA-N = system: MDA-N
# 786-0 renal = system: 786-0 renal
# HCT-15 colon = system: HCT-15 colon
# M14 melanoma = system: M14 melanoma
# PC-3 prostate = system: PC-3 prostate
# MALME-3M melanoma = system: MALME-3M melanoma
# BT-549 breast = system: BT-549 breast
# RXF 393 renal = system: RXF 393 renal
# U251 CNS = system: U251 CNS
# RPMI-8226 leukemia = system: RPMI-8226 leukemia
# MCF7 breast = system: MCF7 breast
# SN12C renal = system: SN12C renal
# HOP-92 NSCLC = system: HOP-92 NSCLC
# SF-539 CNS = system: SF-539 CNS
# SK-MEL-2 melanoma = system: SK-MEL-2 melanoma
# ACHN renal = system: ACHN renal
# T-47D breast = system: T-47D breast
# HL-60(TB) leukemia = system: HL-60(TB) leukemia
# SW-620 colon = system: SW-620 colon
# OVCAR-5 ovarian = system: OVCAR-5 ovarian
# LOX IMVI melanoma = system: LOX IMVI melanoma
# UACC-62 melanoma = system: UACC-62 melanoma
# TK-10 renal = system: TK-10 renal
# MOLT-4 leukemia = system: MOLT-4 leukemia
# NCI-H226 lung = system: NCI-H226 lung
# MDA-MB-231 breast = system: MDA-MB-231 breast
# OVCAR-8 ovarian = system: OVCAR-8 ovarian
# HT29 colon = system: HT29 colon
# IGROV1 ovarian = system: IGROV1 ovarian
# HS 578T breast = system: HS 578T breast
# A549 NSCLC = system: A549 NSCLC
# NCI-H23 lung = system: NCI-H23 lung
# MDA-MB-435 = system: MDA-MB-435
# K-562 leukemia = system: K-562 leukemia
# OVCAR-3 ovarian = system: OVCAR-3 ovarian
# KM12 colon = system: KM12 colon
# SF-268 CNS = system: SF-268 CNS
# CAKI-1 renal = system: CAKI-1 renal
structure (smiles),measurement,setting,value
O=C1c2cc3c(cc2CC12Cc1cc4c(cc1C2=O)CCCC4)CCCC3,TGI,NCI-H460 lung,> 100 µM
same,TGI,EKVX NSCLC,> 100 µM
same,TGI,UACC-257 melanoma,82.1 µM
same,TGI,HCC-2998 colon,> 100 µM
same,TGI,SNB-75 CNS,53.4 µM
same,TGI,CCRF-CEM leukemia,> 100 µM
same,TGI,OVCAR-4 ovarian,46.7 µM
same,TGI,SNB-19 CNS,> 100 µM
same,TGI,HOP-62 NSCLC,57.1 µM
same,TGI,HCT-116 colon,> 100 µM
same,TGI,UO-31 renal,> 100 µM
same,TGI,SK-MEL-5 melanoma,> 100 µM
same,TGI,SR leukemia,> 100 µM
same,TGI,SK-OV-3 ovarian,> 100 µM
same,TGI,COLO 205 colon,> 100 µM
same,TGI,NCI-H522 lung,> 100 µM
same,TGI,SF-295 CNS,69 µM
same,TGI,DU-145 prostate,> 100 µM
same,TGI,SK-MEL-28 melanoma,> 100 µM
same,TGI,NCI/ADR-RES ovarian,> 100 µM
same,TGI,A498 renal,> 100 µM
same,TGI,MDA-N,> 100 µM
same,TGI,786-0 renal,52.4 µM
same,TGI,HCT-15 colon,> 100 µM
same,TGI,M14 melanoma,> 100 µM
same,TGI,PC-3 prostate,> 100 µM
same,TGI,MALME-3M melanoma,> 100 µM
same,TGI,BT-549 breast,> 100 µM
same,TGI,RXF 393 renal,51.6 µM
same,TGI,U251 CNS,> 100 µM
same,TGI,RPMI-8226 leukemia,> 100 µM
same,TGI,MCF7 breast,> 100 µM
same,TGI,SN12C renal,> 100 µM
same,TGI,HOP-92 NSCLC,50.6 µM
same,TGI,SF-539 CNS,> 100 µM
same,TGI,SK-MEL-2 melanoma,> 100 µM
same,TGI,ACHN renal,> 100 µM
same,TGI,T-47D breast,89.1 µM
same,TGI,HL-60(TB) leukemia,> 100 µM
same,TGI,SW-620 colon,> 100 µM
same,TGI,OVCAR-5 ovarian,> 100 µM
same,TGI,LOX IMVI melanoma,> 100 µM
same,TGI,UACC-62 melanoma,> 100 µM
same,TGI,TK-10 renal,75.8 µM
same,TGI,MOLT-4 leukemia,> 100 µM
same,TGI,NCI-H226 lung,> 100 µM
same,TGI,MDA-MB-231 breast,77.1 µM
same,TGI,OVCAR-8 ovarian,> 100 µM
same,TGI,HT29 colon,> 100 µM
same,TGI,IGROV1 ovarian,> 100 µM
same,TGI,HS 578T breast,72.5 µM
same,TGI,A549 NSCLC,> 100 µM
same,TGI,NCI-H23 lung,> 100 µM
same,TGI,MDA-MB-435,> 100 µM
same,TGI,K-562 leukemia,> 100 µM
same,TGI,OVCAR-3 ovarian,93.7 µM
same,TGI,KM12 colon,> 100 µM
same,TGI,SF-268 CNS,> 100 µM
Nc1ccn(C2CC(O)C(COP(O)(=S)OC3CC(n4ccc(N)nc4=O)OC3CO)O2)c(=O)n1 (stereo unspecified),TGI,NCI-H460 lung,> 100 µM
same,TGI,EKVX NSCLC,> 100 µM
same,TGI,UACC-257 melanoma,> 100 µM
same,TGI,HCC-2998 colon,> 100 µM
same,TGI,SNB-75 CNS,> 100 µM
same,TGI,CCRF-CEM leukemia,> 100 µM
same,TGI,OVCAR-4 ovarian,> 100 µM
same,TGI,SNB-19 CNS,> 100 µM
same,TGI,HOP-62 NSCLC,> 100 µM
same,TGI,HCT-116 colon,> 100 µM
same,TGI,UO-31 renal,> 100 µM
same,TGI,SK-MEL-5 melanoma,> 100 µM
same,TGI,CAKI-1 renal,> 100 µM
same,TGI,SR leukemia,> 100 µM
same,TGI,COLO 205 colon,> 100 µM
same,TGI,NCI-H522 lung,> 100 µM
same,TGI,SF-295 CNS,> 100 µM
same,TGI,DU-145 prostate,> 100 µM
same,TGI,SK-MEL-28 melanoma,> 100 µM
same,TGI,NCI/ADR-RES ovarian,> 100 µM
same,TGI,MDA-N,> 100 µM
same,TGI,786-0 renal,> 100 µM
same,TGI,HCT-15 colon,> 100 µM
same,TGI,M14 melanoma,> 100 µM
same,TGI,PC-3 prostate,> 100 µM
same,TGI,BT-549 breast,> 100 µM
same,TGI,U251 CNS,> 100 µM
same,TGI,RPMI-8226 leukemia,> 100 µM
same,TGI,MCF7 breast,> 100 µM
same,TGI,SN12C renal,> 100 µM
same,TGI,HOP-92 NSCLC,> 100 µM
same,TGI,SF-539 CNS,> 100 µM
same,TGI,SK-MEL-2 melanoma,> 100 µM
same,TGI,ACHN renal,> 100 µM
same,TGI,T-47D breast,> 100 µM
same,TGI,HL-60(TB) leukemia,> 100 µM
same,TGI,SW-620 colon,> 100 µM
same,TGI,OVCAR-5 ovarian,> 100 µM
same,TGI,LOX IMVI melanoma,> 100 µM
same,TGI,UACC-62 melanoma,> 100 µM
same,TGI,TK-10 renal,> 100 µM
same,TGI,MOLT-4 leukemia,> 100 µM
same,TGI,MDA-MB-231 breast,> 100 µM
same,TGI,OVCAR-8 ovarian,> 100 µM
same,TGI,HT29 colon,> 100 µM
same,TGI,IGROV1 ovarian,> 100 µM
same,TGI,HS 578T breast,> 100 µM
same,TGI,A549 NSCLC,> 100 µM
same,TGI,NCI-H23 lung,> 100 µM
same,TGI,MDA-MB-435,> 100 µM
same,TGI,OVCAR-3 ovarian,> 100 µM
same,TGI,KM12 colon,> 100 µM
same,TGI,SF-268 CNS,> 100 µM
